Read-outs that look alike come from different tables or passages of the source.
Assays:
CVN-AD mice [1] = format: in vivo
Procedure: (§1) This example was carried out as schematically illustrated in FIG. 1. […] Brains from each mouse were harvested at the end the third day of the rotorod procedure. Brain tissue lysates from each mouse in the experiment were used to determine the levels of Abeta 40 and Abeta 42 peptides and brain metabolites.

humans [2] = experiment: Predicted dosage for Alzheimer's Clinical Trial; format: in vivo, human; conditions: 6 mos-4 yrs
Metastatic liver = conditions: cited from earlier work
Abeta peptides = experiment: Abeta 40 and Abeta 42 peptides in whole brain lysates of CVN-AD mice; format: in vivo, mouse; conditions: DFMO 0.3 or 30 mg/kg vs water, n=12
Text: The average levels of soluble Abeta 42 peptide and soluble Abeta40 peptide (plus and minus the standard error of the mean) measured in whole brain lysates are shown in FIG. 3B. […] The number of mice for each group was 12.

humans [3] = conditions: cited from earlier work
ornithine decarboxylase = biological target: T1, ornithine decarboxylase (Mus musculus, UniProt P00860); experiment: Whole brain lysate metabolite levels related to ornithine decarboxylase activity; format: in vivo
T1 construct: from tissue; host or cells: brain of CVN-AD mice (in vivo dosing; whole brain lysates analysed for metabolites)
T1 sequence (P00860 1-461): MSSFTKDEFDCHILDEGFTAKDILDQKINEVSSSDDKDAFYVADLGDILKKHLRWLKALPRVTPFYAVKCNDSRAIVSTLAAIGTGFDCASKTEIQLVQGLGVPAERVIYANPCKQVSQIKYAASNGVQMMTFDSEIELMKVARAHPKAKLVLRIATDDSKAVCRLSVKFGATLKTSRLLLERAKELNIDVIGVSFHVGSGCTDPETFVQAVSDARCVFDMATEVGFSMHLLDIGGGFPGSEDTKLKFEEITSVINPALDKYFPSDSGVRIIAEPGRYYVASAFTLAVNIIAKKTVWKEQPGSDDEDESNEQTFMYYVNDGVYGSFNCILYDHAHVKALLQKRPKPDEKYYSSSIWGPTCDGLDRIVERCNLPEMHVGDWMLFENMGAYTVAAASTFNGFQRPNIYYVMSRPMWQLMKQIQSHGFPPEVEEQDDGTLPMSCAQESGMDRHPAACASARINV
Procedure: as §1
Humans with Alzheimer's disease show elevation of these metabolites (Inoue K).

CVN-AD mice [4] = system: CVN-AD mice
Normal volunteers = conditions: cited from earlier work
melanoma [5] = conditions: 6 g/m^2/d oral escalated to 12 g/m^2/d, n = 24; cited from earlier work
melanoma [6] = conditions: cited from earlier work
CVN-AD mice [7] = experiment: 2-day radial arm water maze in CVN-AD mice; format: in vivo, mouse; conditions: n=12
Text: Alzheimer's disease (CVN-AD) mice are modified non-human warm-blooded vertebrate animals in which a biologically active human APP polypeptide is expressed, and in which function of its inducible Nitric Oxide Synthase (iNOS) protein is reduced as compared to a non-modified animal. CVN-AD mice are described in U.S. Patent Publication No. 20090081128, the contents of which are incorporated by reference in their entirety. […] (2) Aβ deposition around blood vessels resembling pathology observed in humans with cerebral amyloid angiopathy ([…].); (3) hyperphosphorylated and aggregated mouse tau; neuronal loss; worsening behavioral deficits with time (Colton, C.); and (4) significant hippocampal and fornix volume loss (Badea, A.). […] This age in the CVN-AD mouse model is considered as representative of early Alzheimer's disease in humans (Colton, C.). The number of mice in each group is 12.

[8] = system: Trypanosoma brucei gambiense; conditions: cited from earlier work; for effective dosage for successful treatment of trypanosomiasis: humans
[9] = oral delivery [Lipton A] [Pasic T R]
[10] = 30 mg/kg, average +/- sem, n = 11-12 mice
[11] = 2 g/m^2/d oral, n = 16, 75 days
[12] = 14. g/m^2/d (400 mg/kg/day) IV, n = 1055
[13] = 14.8 g/m^2/d (400 mg/kg/day) ORAL, n = 25

Compound: NCCC[C@](N)(C(=O)O)C(F)F [DFMO, alpha-difluoromethylornithine]
- Dose limiting events (CVN-AD mice [1]; 0.3 mg/kg, 14 wks): none
- On target in brain (CVN-AD mice [1]; 0.3 mg/kg, 14 wks): yes
- Dose limiting events (CVN-AD mice [1]; 10 mg/kg, 14 wks): none
- On target in brain (CVN-AD mice [1]; 10 mg/kg, 14 wks (data not shown)): yes (data not
- Dose limiting events (CVN-AD mice [1]; 30 mg/kg, 14 wks): none
- On target in brain (CVN-AD mice [1]; 30 mg/kg, 14 wks): yes
- adverse events in DFMO treated CVN-AD mice (CVN-AD mice [1]; dose range 0.9 to 90 mg/m2/d): No observable adverse events
- Predicted Dose limiting effects (humans [2]; estimated human dose 36 mg/m^2 daily): none
- Predicted Dose limiting effects (humans [2]; estimated human dose 109 mg/m^2 daily): none
- Predicted Dose limiting effects (humans [2]; estimated human dose 328 mg/m^2 daily): none
- Other toxicity detected, subjects affected (Metastatic liver; 0.5 and 1 g/m^2/d IV): 0/3) at 0.5 and 1 g/m^2/d
- Ototoxicity, subjects affected (Metastatic liver; 0.5 and 1 g/m^2/d IV): Ototoxicity (0/3) at 0.5
- Other toxicity detected, subjects affected (Metastatic liver; 2 g/m^2/d IV): (0/3) at 2 g/m^2/d
- Ototoxicity, subjects affected (Metastatic liver; 2 g/m^2/d IV): Ototoxicity (3/3) at 2 g/m^2/d
- dose with dose limiting ototoxicity (Metastatic liver; [9]): 1500 mg/m^2/d
- average level of insoluble Abeta40 peptide in whole brain lysates (Abeta peptides): No significant change
- average level of insoluble Abeta 42 peptide in whole brain lysates (Abeta peptides): No significant change
- soluble Abeta 40 levels in whole brain lysates (Abeta peptides): statistically significantly decreased
- Brain-based toxicity: deaths (humans [3]; 14. g/m^2/d IV, n = 1055): 15 deaths
- Brain-based toxicity: seizures (humans [3]; 14. g/m^2/d IV, n = 1055): (4%)
- Other toxicity detected: abdominal pain (humans [3]; 14. g/m^2/d IV, n = 1055): pain (37.7%),
- Other toxicity detected: headache (humans [3]; 14. g/m^2/d IV, n = 1055): (31.2%),
- Other toxicity detected: diarrhea (humans [3]; 14.8 g/m^2/d ORAL, n = 25): (58.3%)
- Other toxicity detected: headache (humans [3]; 14.8 g/m^2/d ORAL, n = 25): (16.7%),
- Observed difference, putrescine (p; significantly decreased with DFMO-treatment) (ornithine decarboxylase; 30 mg/kg vs water only): p < 0.05
- Observed difference, spermidine (p; significantly decreased with DFMO-treatment) (ornithine decarboxylase; 30 mg/kg vs water only): p < 0.01
- putrescine, CVN-AD brain lysate levels DFMO-treated (ornithine decarboxylase; [10]): 0.49 ± 0.02 µM/g
- spermidine, CVN-AD brain lysate levels DFMO-treated (ornithine decarboxylase; [10]): 12.2 ± 0.63 µM/g
- brain levels of putrescine compared to untreated CVN-AD mice (ornithine decarboxylase; DFMO treatment): significantly lower
- brain levels of spermidine compared to untreated CVN-AD mice (ornithine decarboxylase; DFMO treatment): significantly lower
- brain levels of spermine compared to untreated CVN-AD mice (ornithine decarboxylase; DFMO treatment): significantly lower
- average number of seconds on the rotorod over 3 days of testing (CVN-AD mice [4]; DFMO 0.3 or 30 mg/kg vs water only): No change
- toxic effect on motor skills (CVN-AD mice [4]; at the doses used (0.3, 30 mg/kg)): no toxic effect
- Other toxicity detected: vomiting/diarrhea (Normal volunteers; 0.5-3 g/m^2/d oral, n = 13): Not study limiting
- dose above which ototoxicity is dose dependent, increasing toxicity (Normal volunteers; 0.5-3 g/m^2/d oral, n = 13): (12%); >1 g/m^2/d is
- Ototoxicity (Normal volunteers; 0.5 g/m^2/d oral, same as placebo (12%)): (9%) same as placebo
- dose with mild reversible ototoxicity (no adverse event grade assigned) (Normal volunteers; [9]): 1000 mg/m^2/d
- Other toxicity detected (low grade) (melanoma [5]): 67% (low grade)
- Ototoxicity, % of treated subjects (melanoma [5]): Ototoxicity in 50% of
- Ototoxicity, subjects affected (melanoma [5]): (12/24)
- Ototoxicity (melanoma [6]; [11]): Ototoxicity (10%)
- Ototoxicity trend with dose and duration (melanoma [6]; [11]): Increasing with dose
- dose with mild ototoxicity (melanoma [6]; oral delivery [Croghan M K]): 2000 mg/m^2/d
- average number of errors in finding an escape platform after 2 days of trials, radial arm water maze (CVN-AD mice [7]; 0.3 mg/kg (0.9 mg/m^2) oral gavage 3x/wk 14 weeks vs water only): statistically significantly decreased
- average number of errors in finding an escape platform after 2 days of trials, radial arm water maze (CVN-AD mice [7]; 30 mg/kg (92.5 mg/m^2) oral gavage 3x/wk 14 weeks vs water only): more so
- Efficacy: clearance of trypanosomes [8, 12]: Prolonged clearance
- Efficacy: confirmed cured [8, 12]: 44% confirmed
- Efficacy: probable cure [8, 12]: cured, 45%
- Efficacy: clearance of brain trypanosomes [8, 13]: Partial clearance of
- Efficacy: death [8, 13]: weakness). No
- Efficacy: signs/symptoms of trypanosomiasis [8, 13]: Reduced
- effective dosage for successful treatment of trypanosomiasis ([8]; intravenous (IV)): 14800 mg/m2/d
- effective dosage for successful treatment of trypanosomiasis ([8]; orally): 14800 mg/m2/d
